These results are taken from patent US11992009B2, “Pesticide-containing soil disinfestation material without use of fumigant” (priority 2020, dated 2024).

The nature of series [1]: Lab soil pesticide release testing. In kind it is physicochemical. Particulars: for Pesticide content of fumigant-free soil disinfestation materials after set time on Soil: HPLC, LoQ 0.25 g/ha. The method, then:
200 g of dry soil is placed in rectangular thin layer chromatography chamber of 27×7×26 cm with lid and 20 g water is added to the soil. A 58 cm^2 of a polymer composite material sample is placed on the humid soil and weight down by a glass plate with a contact pressure of […] to simulate similar contact conditions with the soil as in the field after application of the polymer composite material like a plastic mulch film. […]
After the set contact time with the soil the film sample is removed, moisture is dabbed off, loose dirt is brushed off and then the sample is dried at 60 C in an oven for 10 min. After drying the sample is cut into 100 small squares (each about 7.5 by 7.5 mm), placed in a small glass flask with 5 gram of Methanol and a magnetic stir bar. The flask is capped, stirred for 4 hours and the methanolic solution is then analyzed by HPLC. The difference between the initial and remaining amount of pesticide is released to the soil during the set time. The lowest concentration of analyte that can be determined with an acceptable repeatability and trueness by the method is 0.025 mg/m^2=0.25 g/ha Limit of quantitation (LoQ).

The conditions of series [2]: cited from earlier work.

Consider `N#Cc1c[nH]cc1-c1cccc2c1OC(F)(F)O2` [Fludioxonil], for which the “Pesticide content of fumigant-free soil disinfestation materials after set time on Soil” value in series [1] (Example 1 material, 0 days (initial content)) is 244 g/ha; in series [1] (Example 1 material, 7 days on humid soil), 57 g/ha; in series [1] (Example 1 material, 14 days on humid soil), 23 g/ha; in series [1] (Example 1 material, 21 days on humid soil), 0 g/ha; in series [1] (Example 2 material, 0 days (initial content)), 244 g/ha; in series [1] (Example 2 material, 7 days on humid soil), 53 g/ha. The “Pesticide content of fumigant-free soil disinfestation materials after set time on Soil” value in series [1] (Example 2 material, 14 days on humid soil) worked out at 17 g/ha; in series [1] (Example 2 material, 21 days on humid soil), 0 g/ha. The “Release from coated film in lab release test (FIG. 3)” value in series [1] (at 7, 14 and 21 days, before planting) was “complete release”. Also, in series [2], the Water solubility entry is “hardly water soluble”.
As for `Cc1nn(-c2cc(NS(C)(=O)=O)c(Cl)cc2Cl)c(=O)n1C(F)F` [Sulfentrazone], the “Pesticide content of fumigant-free soil disinfestation materials after set time on Soil” value was determined as 202 g/ha in series [1] (Example 3 material, 0 days (initial content)); 15 g/ha in series [1] (Example 3 material, 7 days on humid soil); 0 g/ha in series [1] (Example 3 material, 14 days on humid soil); 0 g/ha in series [1] (Example 3 material, 21 days on humid soil).
